Data on four sequences can be found in patent publication US7098306B2, “Method and compositions for treating hepatocellular cancer” (The Regents of the University of California, priority 1997, dated 2006).

Test [1] has as its system AdVhAFP/DC immunized murine splenocytes. Briefly: IFNg ELISPOT restimulation of AdVhAFP/DC immunized murine splenocytes with HPLC fractions eluted from HepG2 or Hep3B. It counts as cell-based. To be noted: HPLC fractions from Hep3B elution. How it is done: To elute peptides, HepG2 and Hep3B cells were washed three times with PBS before being incubated with 5 ml of citrate-phosphate buffer at pH 3.2 for 1 minute. The suspension was centrifuged (800×g for 5 minutes) and a total of 500 ml of cell-free supernatant was collected for each cell line. The materials were lyophilized to dryness and stored at −20° C.
Lyophilized materials were redissolved in 30 ml of water/acetonitrile/triflouroacetic acid (W/A/TFA, 95/5/0.1 all by vol.). This solution was pumped onto an analytical reverse phase HPLC column (Keystone Scientific C18 Betasil, 250 mm×2 mm, […] particle size, 100 Å pore size) equilibrated in W/A/TFA, at a flow rate of 0.2 ml/min. The column was eluted using an increasing linear gradient of 0.1% TFA in acetonitrile (time/%acetonitrile=0/5, 5/5, 55/100, 60/100). Column eluate absorbance was monitored at 215 and 280 nm and 1 minute fractions were collected. The retention times of the synthetic peptides with amino acid sequences corresponding to the immunostimulatory peptides were obtained using the same separation gradient on a separate column.
To confirm the presence of dominant peptides in these fractions immunologically, […] of each HPLC fraction from either HepG2 or Hep3B cells was used to restimulate AdVhAFP/DC immunized murine splenocytes in an ELISPOT assay. 200–250 spots/10^6 cells were observed from fractions containing dominant peptides, where 100–130 spots/10^6 cells were observed from the other fractions, and a maximum of 50 spots/10^6 cells were observed from Hep3B fractions. This further supports the mass spectrometry identification of the dominant peptides.

The test system of test [2] is AFP positive/A2.1+ hepatocellular carcinoma. Briefly: immunization of hepatocellular carcinoma patients with the four peptides in Montanide ISA-51, peripheral T cell responses by ELISPOT and tetramer. The test is classed as in vivo, human. The conditions noted are these: for in vivo T cell responses: patient AFP-A1, 100 μg each peptide, after the second and third immunization; for T cell responses by tetramer and ELISPOT: patient AFP-A2, following two immunizations. The procedure:
The method and compositions of the present invention were used to treat several patients with AFP positive/A2.1+ hepatocellular carcinoma. Each of the patients were immunized with the four peptides hAFP137-145, residues 137–145 of SEQ ID NO:2; hAFP158-166, residues 158–166 of SEQ ID NO:2; hAFP325-334, residues 325–334 of SEQ ID NO:2; and hAFP542-550, residues 542–550 of SEQ ID NO:2, according to the this method. The peptides were emulsified in 0.5 ml of Montanide™ ISA-51 and combined for a total of 2 ml. The emulsified peptides were divided into four equal doses and each dose was administered in a separate site. Peripheral T cell responses are measured by ELISPOT and tetramer assays.
(§1) They were administered three immunizations of 100 μg each of the four peptides in Montanide™ ISA at two week intervals. Parallel in vitro PBMC cultures were also established from the first patient's blood before immunization and repetitively pulsed with each peptide. […] The presence of AFP542-specific T cells could not be assessed by tetramer as an AFP542 peptide tetramer could not be folded by the facility where these reagents are prepared.
The second patient, designated AFP-A2 was a person with a history of ethanol-induced liver cirrhosis, who was negative for both Hepatitis B and C. […] Their AFP level at presentation was 10,400 ng/ml. […] Seven months after presentation, they were then begun on a combination of the four peptides hAFP137-145, residues 137–145 of SEQ ID NO:2; hAFP158-166, residues 158–166 of SEQ ID NO:2; hAFP325-334, residues 325–334 of SEQ ID NO:2; and hAFP542-550, residues 542–550 of SEQ ID NO:2 using the protocol according to the present invention. They received two immunizations two weeks apart.

Test [3] relates to PBMC cultures. Briefly: parallel in vitro PBMC cultures of patient AFP-A1 repetitively pulsed with each peptide. It counts as cell-based, human. The conditions noted are these: patient AFP-A1, day 28 cultures. How it is done: as §1

Turning to “FMNKFIYEI (listed as Homo sapiens) [hAFP158-166, dominant HLA-A*0201 peptide derived from human alpha fetoprotein]”, the “Immunologically Reactive Fractions (IFNg ELISPOT) Hep3B” value (“Immunologically Reactive Fractions” for short) in test [1] amounted to 0. Besides, in test [2], the “in vivo T cell responses” value is “clear recognition”; the “T cell responses by tetramer and ELISPOT” value is reported as “T cell responses were detected”.
In the case of “GLSPNLNRFL (listed as Homo sapiens) [hAFP325-334, dominant HLA-A*0201 peptide derived from human alpha fetoprotein]”, the “in vitro recognition by tetramer” value in test [3] is listed as “clear in vitro recognition”. In test [1], the “Immunologically Reactive Fractions” value was 0. In test [2], the “in vivo T cell responses” value was “trend towards recognition”; the “T cell responses by tetramer and ELISPOT” value was “T cell responses were detected”.
On to “GVALQTMKQ (listed as Homo sapiens) [hAFP542-550, dominant HLA-A*0201 peptide derived from human alpha fetoprotein]”, for which, in test [1], the “Immunologically Reactive Fractions” value was 0. In test [2], the “in vivo T cell responses” value is recorded as “clear recognition”; the “T cell responses by tetramer and ELISPOT” value was “T cell responses were detected”.
In the case of “PLFQVPEPV (listed as Homo sapiens) [hAFP137-145, dominant HLA-A*0201 peptide derived from human alpha fetoprotein]”, the “in vitro recognition by tetramer” value in test [3] was “clear in vitro recognition”. For the same sequence, in test [1], the “Immunologically Reactive Fractions” value was determined as 0. In test [2], the “in vivo T cell responses” value is on record as “clear recognition”; the “T cell responses by tetramer and ELISPOT” value was “T cell responses were detected”.
